Reference: ChEMBL document CHEMBL4507326, “Data for DCP probe TP-030-2” (2021)

How the values were obtained:
[1] = target: Serine/threonine-protein kinase Nek2 (Homo sapiens, UniProt P51955); test: Nek2(NEK2LHFA) Takeda global kinase panel
[2] = target: Muscarinic acetylcholine receptor M2 (Homo sapiens) (UniProt P08172); settings: Compound concentration 10.0 uM
[3] = target: Tyrosine-protein kinase Fgr (Homo sapiens, UniProt P09769); test: Fgr(FGR1LGF1) Takeda global kinase panel
[4] = target: Serine/threonine-protein kinase PLK1 (Homo sapiens, UniProt P53350); test: PLK1(PLK1LGY1) Takeda global kinase panel
[5] = target: Kappa-type opioid receptor (Homo sapiens) (UniProt P41145); settings: Compound concentration 10.0 uM
[6] = target: Receptor tyrosine-protein kinase erbB-4 (Homo sapiens, UniProt Q15303); test: HER4(ERB4CGF1) Takeda global kinase panel
[7] = target: Alpha-2A adrenergic receptor (Homo sapiens, UniProt P08913); test: GPCRScan assay: inhibition of Alpha2A; parameters: radioligand conc. used [nm] 1.0 – 3.0, parental cells stable MDCK
[8] = target: Hormonally up-regulated neu tumor-associated kinase (Homo sapiens, UniProt P57058); test: HUNK(HUNKLGRN) Takeda global kinase panel
[9] = target: Serine/threonine-protein kinase Sgk2 (Homo sapiens, UniProt Q9HBY8); test: SGK2(SGK2LGE5) Takeda global kinase panel
[10] = target: Ribosomal protein S6 kinase alpha-6 (Homo sapiens, UniProt Q9UK32); test: RSK4(R6A6LGF1) Takeda global kinase panel
[11] = target: Ribosomal protein S6 kinase alpha-5 (Homo sapiens, UniProt O75582); test: MSK1(R6A5LGY1) Takeda global kinase panel
[12] = target: Serine/threonine-protein kinase H1 (Homo sapiens, UniProt P11801); test: PSKH1(PSH1LGRH) Takeda global kinase panel
[13] = target: Sigma intracellular receptor 2 (Homo sapiens, UniProt Q5BJF2); test: GPCRScan assay: inhibition of Sigma 2; parameters: radioligand conc. used [nm] 5.0, parental cells HEKT
[14] = target: Serine/threonine-protein kinase TBK1 (Homo sapiens, UniProt Q9UHD2); test: TBK1(TBK1CGF1) Takeda global kinase panel
[15] = target: Serine/threonine-protein kinase pim-1 (Homo sapiens, UniProt P11309); test: Pim1(PIM1LGP1) Takeda global kinase panel
[16] = target: 3-phosphoinositide-dependent protein kinase 1 (Homo sapiens, UniProt O15530); test: PDK1(PDP1LGA1) Takeda global kinase panel
[17] = target: Ribosomal protein S6 kinase alpha-2 (Homo sapiens, UniProt Q15349); test: RSK3(R6A1CGE1) Takeda global kinase panel
eIF-2-alpha kinase GCN2 = eIF-2-alpha kinase GCN2 (Homo sapiens, UniProt Q9P2K8); test: GCN2(EIK4PHK1) Takeda global kinase panel
[18] = target: Receptor-interacting serine/threonine-protein kinase 3 (Homo sapiens, UniProt Q9Y572); test: RIPK3(RIP3IGRI) Takeda global kinase panel
[19] = target: 5-hydroxytryptamine receptor 2B (Homo sapiens) (UniProt P41595); settings: Compound concentration 10.0 uM
[20] = target: ALK tyrosine kinase receptor (Homo sapiens, UniProt Q9UM73); test: ALK(ALK1LGY1) Takeda global kinase panel
[21] = target: Acetylcholine receptor subunit alpha (Homo sapiens) (UniProt P02708); test: Inhibition of Nicotinic Acetylcholine D1, Bungarotoxin at 10 µM in the Eurofins-Panlabs radioligand binding assay (Eurofins_assay_258700); settings: Compound concentration 10.0 uM
[22] = target: Serine/threonine-protein kinase BRSK1 (Homo sapiens, UniProt Q8TDC3); test: BRSK1(BRS1LGA1) Takeda global kinase panel
[23] = target: Serine/threonine-protein kinase SIK2 (Homo sapiens, UniProt Q9H0K1); test: QIK(SIK2LGY1) Takeda global kinase panel
[24] = target: Mitogen-activated protein kinase kinase kinase 14 (Homo sapiens, UniProt Q99558); test: NIK(M314LGP1) Takeda global kinase panel
[25] = target: Alpha-2B adrenergic receptor (Homo sapiens, UniProt P18089); test: GPCRScan assay: inhibition of Alpha2B; parameters: radioligand conc. used [nm] 1.5 – 2.0, parental cells HEKT
[26] = target: Mu-type opioid receptor (Homo sapiens) (UniProt P35372); settings: Compound concentration 10.0 uM
Ephrin type-A receptor 7 = Ephrin type-A receptor 7 (Homo sapiens, UniProt Q15375); test: EphA7(EPA7LGF1) Takeda global kinase panel
[27] = target: Adenosine receptor A2a (Homo sapiens) (UniProt P29274); settings: Compound concentration 10.0 uM
[28] = target: Serine/threonine-protein kinase Nek1 (Homo sapiens, UniProt Q96PY6); test: Nek1(NEK1LGY1) Takeda global kinase panel
[29] = target: Sodium-dependent noradrenaline transporter (Homo sapiens) (UniProt P23975); settings: Compound concentration 10.0 uM
[30] = target: Alpha-2B adrenergic receptor (Homo sapiens) (UniProt P18089); settings: Compound concentration 10.0 uM
Myosin-IIIb = Myosin-IIIb (Homo sapiens, UniProt Q8WXR4); test: MYO3B(MY3BLGA1) Takeda global kinase panel
Rattus norvegicus = organism: Rattus norvegicus; settings: Compound concentration 10.0 uM
[31] = target: Mitogen-activated protein kinase kinase kinase 11 (Homo sapiens, UniProt Q16584); test: MLK3(M311LGF1) Takeda global kinase panel
[32] = target: 5-hydroxytryptamine receptor 1A (Homo sapiens) (UniProt P08908); settings: Compound concentration 10.0 uM
[33] = target: Serine/threonine-protein kinase 33 (Homo sapiens, UniProt Q9BYT3); test: STK33(ST33LGF1) Takeda global kinase panel
Insulin receptor = Insulin receptor (Homo sapiens, UniProt P06213); test: InSR(INSRLGY1) Takeda global kinase panel
[34] = target: Vascular endothelial growth factor receptor 3 (Homo sapiens, UniProt P35916); test: FLT4(FLT4LGY1) Takeda global kinase panel
[35] = target: Epidermal growth factor receptor (Homo sapiens, UniProt P00533); test: EGFR(EGFRMGB1) Takeda global kinase panel
[36] = target: Cyclin-dependent kinase 4 (Homo sapiens, UniProt P11802); test: CDK4(CDK4CGS1) Takeda global kinase panel
[37] = target: Bone morphogenetic protein receptor type-1B (Homo sapiens, UniProt O00238); test: BMPR1B(BM1BLGF1) Takeda global kinase panel
[38] = target: Glycogen synthase kinase-3 beta (Homo sapiens, UniProt P49841); test: GSK3beta(GS3BLGM1) Takeda global kinase panel
[39] = target: Serine/threonine-protein kinase Chk2 (Homo sapiens, UniProt O96017); test: CHK2(CHE2LGY1) Takeda global kinase panel
[40] = target: Muscarinic acetylcholine receptor M1 (Homo sapiens) (UniProt P11229); settings: Compound concentration 10.0 uM
[41] = target: Inhibitor of nuclear factor kappa-B kinase subunit beta (Homo sapiens, UniProt O14920); test: IKKbeta(IKBBLHY1) Takeda global kinase panel

Sequence of Sigma intracellular receptor 2 (Q5BJF2 whole entry): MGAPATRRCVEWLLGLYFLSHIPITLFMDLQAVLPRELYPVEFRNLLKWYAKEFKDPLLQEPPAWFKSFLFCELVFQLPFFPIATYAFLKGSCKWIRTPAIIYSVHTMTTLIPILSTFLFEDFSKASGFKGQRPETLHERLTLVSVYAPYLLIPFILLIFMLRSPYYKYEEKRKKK
Sequence of Alpha-2B adrenergic receptor (P18089 whole entry): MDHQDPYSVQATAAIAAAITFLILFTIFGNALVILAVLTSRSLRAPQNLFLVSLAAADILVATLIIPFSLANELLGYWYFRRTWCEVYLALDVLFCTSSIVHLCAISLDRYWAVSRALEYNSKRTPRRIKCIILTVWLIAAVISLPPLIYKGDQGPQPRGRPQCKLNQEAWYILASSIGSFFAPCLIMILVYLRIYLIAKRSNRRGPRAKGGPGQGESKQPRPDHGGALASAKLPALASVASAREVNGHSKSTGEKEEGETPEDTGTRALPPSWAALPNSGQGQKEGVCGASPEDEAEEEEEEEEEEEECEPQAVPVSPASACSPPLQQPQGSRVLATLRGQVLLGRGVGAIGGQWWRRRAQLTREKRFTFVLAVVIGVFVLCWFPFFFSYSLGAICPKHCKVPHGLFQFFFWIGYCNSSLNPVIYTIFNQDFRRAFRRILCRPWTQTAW
Sequence of Ribosomal protein S6 kinase alpha-6 (Q9UK32 whole entry): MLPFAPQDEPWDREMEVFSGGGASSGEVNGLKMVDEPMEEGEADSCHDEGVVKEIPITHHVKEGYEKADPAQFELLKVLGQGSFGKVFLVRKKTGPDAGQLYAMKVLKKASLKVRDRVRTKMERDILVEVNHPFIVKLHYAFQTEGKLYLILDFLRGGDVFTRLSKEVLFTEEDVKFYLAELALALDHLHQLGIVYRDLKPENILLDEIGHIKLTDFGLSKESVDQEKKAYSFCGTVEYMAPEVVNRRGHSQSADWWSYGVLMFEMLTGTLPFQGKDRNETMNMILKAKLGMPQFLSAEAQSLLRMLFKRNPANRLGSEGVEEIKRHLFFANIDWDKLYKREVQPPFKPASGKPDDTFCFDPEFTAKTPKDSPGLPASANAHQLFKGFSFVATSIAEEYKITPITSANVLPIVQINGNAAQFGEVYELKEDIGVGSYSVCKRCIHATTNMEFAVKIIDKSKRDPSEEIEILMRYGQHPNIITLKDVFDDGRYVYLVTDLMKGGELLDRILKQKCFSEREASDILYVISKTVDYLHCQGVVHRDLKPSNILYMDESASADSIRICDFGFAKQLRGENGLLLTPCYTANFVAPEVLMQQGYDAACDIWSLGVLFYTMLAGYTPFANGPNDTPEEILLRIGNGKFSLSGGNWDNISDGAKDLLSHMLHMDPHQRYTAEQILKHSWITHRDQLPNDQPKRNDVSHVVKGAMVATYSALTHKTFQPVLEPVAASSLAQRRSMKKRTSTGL
Sequence of Acetylcholine receptor subunit alpha (Homo sapiens) (P02708 whole entry): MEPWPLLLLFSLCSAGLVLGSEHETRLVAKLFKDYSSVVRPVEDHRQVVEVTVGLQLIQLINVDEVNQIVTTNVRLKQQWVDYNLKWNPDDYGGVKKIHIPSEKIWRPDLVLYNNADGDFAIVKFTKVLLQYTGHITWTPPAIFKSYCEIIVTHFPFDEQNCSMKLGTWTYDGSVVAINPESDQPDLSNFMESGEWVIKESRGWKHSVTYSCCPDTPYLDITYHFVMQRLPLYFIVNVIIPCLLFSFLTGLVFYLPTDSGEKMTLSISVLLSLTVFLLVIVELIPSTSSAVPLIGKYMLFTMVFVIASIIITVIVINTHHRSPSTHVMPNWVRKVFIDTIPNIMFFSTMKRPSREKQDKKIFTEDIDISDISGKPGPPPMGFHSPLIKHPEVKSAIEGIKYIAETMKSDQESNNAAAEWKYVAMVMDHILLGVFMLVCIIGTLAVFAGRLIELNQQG
Sequence of Sodium-dependent noradrenaline transporter (Homo sapiens) (P23975 whole entry): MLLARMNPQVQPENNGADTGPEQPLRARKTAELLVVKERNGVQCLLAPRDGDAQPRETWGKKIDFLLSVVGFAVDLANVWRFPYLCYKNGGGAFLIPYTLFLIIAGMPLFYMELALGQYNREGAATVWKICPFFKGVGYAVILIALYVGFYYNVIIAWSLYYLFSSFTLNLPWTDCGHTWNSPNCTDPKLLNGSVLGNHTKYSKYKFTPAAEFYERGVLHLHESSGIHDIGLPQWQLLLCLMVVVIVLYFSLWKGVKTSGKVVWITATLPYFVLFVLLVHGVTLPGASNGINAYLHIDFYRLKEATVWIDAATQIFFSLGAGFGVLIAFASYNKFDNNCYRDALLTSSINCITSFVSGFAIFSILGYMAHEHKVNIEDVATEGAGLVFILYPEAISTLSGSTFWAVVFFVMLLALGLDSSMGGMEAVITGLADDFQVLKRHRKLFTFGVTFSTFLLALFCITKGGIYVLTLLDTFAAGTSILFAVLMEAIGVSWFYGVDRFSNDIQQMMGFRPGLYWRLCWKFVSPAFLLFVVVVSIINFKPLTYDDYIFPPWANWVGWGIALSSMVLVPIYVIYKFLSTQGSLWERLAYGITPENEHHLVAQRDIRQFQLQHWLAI
Sequence of Serine/threonine-protein kinase BRSK1 (Q8TDC3 whole entry): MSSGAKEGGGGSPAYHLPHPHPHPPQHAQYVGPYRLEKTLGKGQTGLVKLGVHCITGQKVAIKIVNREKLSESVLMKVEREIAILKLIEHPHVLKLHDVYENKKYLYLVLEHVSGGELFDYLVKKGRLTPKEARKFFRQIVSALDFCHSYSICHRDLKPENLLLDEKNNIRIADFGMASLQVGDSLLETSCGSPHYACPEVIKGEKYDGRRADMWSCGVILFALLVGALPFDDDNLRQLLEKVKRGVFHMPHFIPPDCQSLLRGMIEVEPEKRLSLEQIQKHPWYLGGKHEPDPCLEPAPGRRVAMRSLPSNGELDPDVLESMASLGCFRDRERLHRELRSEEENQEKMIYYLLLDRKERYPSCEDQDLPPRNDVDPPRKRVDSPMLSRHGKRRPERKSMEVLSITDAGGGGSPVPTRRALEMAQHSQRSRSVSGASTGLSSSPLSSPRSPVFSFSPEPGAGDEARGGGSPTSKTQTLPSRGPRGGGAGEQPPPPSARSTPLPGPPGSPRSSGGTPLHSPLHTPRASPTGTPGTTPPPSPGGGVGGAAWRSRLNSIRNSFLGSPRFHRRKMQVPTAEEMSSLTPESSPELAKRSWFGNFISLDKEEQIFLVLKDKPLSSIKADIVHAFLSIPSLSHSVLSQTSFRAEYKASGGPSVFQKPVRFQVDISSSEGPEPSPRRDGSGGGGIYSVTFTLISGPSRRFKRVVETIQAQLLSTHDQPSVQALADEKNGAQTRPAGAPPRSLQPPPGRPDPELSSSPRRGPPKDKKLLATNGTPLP
Sequence of Serine/threonine-protein kinase pim-1 (P11309 whole entry): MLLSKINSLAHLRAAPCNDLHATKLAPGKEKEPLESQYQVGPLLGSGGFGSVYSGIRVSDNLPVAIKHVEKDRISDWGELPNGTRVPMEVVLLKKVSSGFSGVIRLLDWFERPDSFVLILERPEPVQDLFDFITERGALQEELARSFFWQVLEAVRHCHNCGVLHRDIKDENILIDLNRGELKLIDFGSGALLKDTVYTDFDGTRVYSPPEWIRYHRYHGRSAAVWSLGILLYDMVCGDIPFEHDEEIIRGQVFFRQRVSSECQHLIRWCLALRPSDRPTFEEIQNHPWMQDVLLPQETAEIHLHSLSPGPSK
Sequence of 3-phosphoinositide-dependent protein kinase 1 (O15530 whole entry): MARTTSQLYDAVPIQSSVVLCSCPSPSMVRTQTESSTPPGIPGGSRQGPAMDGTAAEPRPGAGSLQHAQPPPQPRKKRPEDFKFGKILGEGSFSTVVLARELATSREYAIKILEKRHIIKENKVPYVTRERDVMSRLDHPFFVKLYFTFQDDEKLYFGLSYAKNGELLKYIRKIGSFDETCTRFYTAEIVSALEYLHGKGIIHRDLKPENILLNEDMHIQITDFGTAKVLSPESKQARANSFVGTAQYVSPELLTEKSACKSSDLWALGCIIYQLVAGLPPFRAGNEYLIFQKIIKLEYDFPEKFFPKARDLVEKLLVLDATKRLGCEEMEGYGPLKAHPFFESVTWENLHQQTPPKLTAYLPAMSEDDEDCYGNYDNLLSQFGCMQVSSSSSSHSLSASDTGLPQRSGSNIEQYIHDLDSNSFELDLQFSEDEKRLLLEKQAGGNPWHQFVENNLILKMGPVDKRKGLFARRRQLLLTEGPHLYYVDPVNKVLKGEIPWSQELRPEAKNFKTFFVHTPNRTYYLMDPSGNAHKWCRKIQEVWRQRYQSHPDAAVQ
Sequence of Alpha-2A adrenergic receptor (P08913 whole entry): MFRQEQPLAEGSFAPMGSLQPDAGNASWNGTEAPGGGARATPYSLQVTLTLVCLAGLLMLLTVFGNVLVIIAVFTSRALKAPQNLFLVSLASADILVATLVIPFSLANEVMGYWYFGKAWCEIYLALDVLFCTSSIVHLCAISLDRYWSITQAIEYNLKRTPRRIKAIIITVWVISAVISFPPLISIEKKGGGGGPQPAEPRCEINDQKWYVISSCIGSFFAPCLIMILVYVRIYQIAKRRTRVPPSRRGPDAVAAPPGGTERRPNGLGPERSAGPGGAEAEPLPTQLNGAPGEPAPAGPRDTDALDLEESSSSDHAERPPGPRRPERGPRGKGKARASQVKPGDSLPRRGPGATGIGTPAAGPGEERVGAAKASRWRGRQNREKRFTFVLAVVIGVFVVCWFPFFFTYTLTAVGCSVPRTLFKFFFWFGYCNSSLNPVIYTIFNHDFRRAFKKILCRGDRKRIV
Sequence of Kappa-type opioid receptor (Homo sapiens) (P41145 whole entry): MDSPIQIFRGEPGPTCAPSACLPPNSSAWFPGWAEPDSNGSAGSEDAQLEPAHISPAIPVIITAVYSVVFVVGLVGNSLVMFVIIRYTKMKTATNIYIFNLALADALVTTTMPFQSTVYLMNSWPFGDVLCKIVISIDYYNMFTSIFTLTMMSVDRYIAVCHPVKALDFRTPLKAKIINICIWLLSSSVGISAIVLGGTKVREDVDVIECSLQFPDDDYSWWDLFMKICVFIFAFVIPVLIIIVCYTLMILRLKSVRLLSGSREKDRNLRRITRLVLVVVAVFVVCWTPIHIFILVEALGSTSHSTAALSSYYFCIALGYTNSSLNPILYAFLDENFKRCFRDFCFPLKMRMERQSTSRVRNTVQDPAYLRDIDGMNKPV
Sequence of Alpha-2B adrenergic receptor (Homo sapiens) (P18089 whole entry): as the sequence (P18089 whole entry) above

Question: How did the IC50 [1] turn out when `CN1C(=O)[C@@H](N2CCc3c(nn(Cc4ccccc4)c3Br)C2=O)COc2ccccc21` [TP-030-2] was run?
Answer: 1000 nM

Question: What about the inhibition [2] of the same compound?
Answer: 2%

Question: What about the IC50 [3] of the same compound?
Answer: 1000 nM

Question: What about the IC50 [4] of the same compound?
Answer: 1000 nM

Question: And the inhibition [5]?
Answer: 16.5%

Question: What about the IC50 [6] of the same compound?
Answer: 1000 nM

Question: What about the Ki [7] of the same compound?
Answer: 2360 nM

Question: And the IC50 [8]?
Answer: 1000 nM

Question: What about the IC50 [9] of the same compound?
Answer: 1000 nM

Question: What about the IC50 [10] of the same compound?
Answer: 1000 nM

Question: What about the IC50 [11] of the same compound?
Answer: 1000 nM

Question: And the IC50 [12]?
Answer: 1000 nM

Question: What about the Ki ([13]; read-out: Ki) of the same compound?
Answer: 3480 nM

Question: And the Ki ([13]; read-out: pKi (converted))?
Answer: 3240 nM

Question: What about the IC50 [14] of the same compound?
Answer: 1000 nM

Question: What about the IC50 [15] of the same compound?
Answer: 1000 nM

Question: And the IC50 [16]?
Answer: 1000 nM

Question: What about the IC50 [17] of the same compound?
Answer: 1000 nM

Question: And the IC50 (eIF-2-alpha kinase GCN2)?
Answer: 1000 nM

Question: And the IC50 [18]?
Answer: 1000 nM

Question: What about the inhibition [19] of the same compound?
Answer: 38.3%

Question: What about the IC50 [20] of the same compound?
Answer: 1000 nM

Question: What about the inhibition [21] of the same compound?
Answer: -2%

Question: And the IC50 [22]?
Answer: 1000 nM

Question: What about the IC50 [23] of the same compound?
Answer: 1000 nM

Question: What about the IC50 [24] of the same compound?
Answer: 1000 nM

Question: What about the Ki ([25]; read-out: Ki) of the same compound?
Answer: 2870 nM

Question: And the Ki ([25]; read-out: pKi (converted))?
Answer: 2820 nM

Question: What about the inhibition [26] of the same compound?
Answer: 14.6%

Question: What about the IC50 (Ephrin type-A receptor 7) of the same compound?
Answer: 1000 nM

Question: What about the inhibition [27] of the same compound?
Answer: 8%

Question: What about the IC50 [28] of the same compound?
Answer: 1000 nM

Question: What about the inhibition [29] of the same compound?
Answer: 27%

Question: What about the inhibition [30] of the same compound?
Answer: 59.6%

Question: What about the IC50 (Myosin-IIIb) of the same compound?
Answer: 1000 nM

Question: And the inhibition (Rattus norvegicus)?
Answer: -6%

Question: And the IC50 [31]?
Answer: 1000 nM

Question: And the inhibition [32]?
Answer: 16.9%

Question: What about the IC50 [33] of the same compound?
Answer: 1000 nM

Question: And the IC50 (Insulin receptor)?
Answer: 1000 nM

Question: And the IC50 [34]?
Answer: 1000 nM

Question: What about the IC50 [35] of the same compound?
Answer: 1000 nM

Question: And the IC50 [36]?
Answer: 1000 nM

Question: What about the IC50 [37] of the same compound?
Answer: 1000 nM

Question: What about the IC50 [38] of the same compound?
Answer: 1000 nM

Question: And the IC50 [39]?
Answer: 1000 nM

Question: What about the inhibition [40] of the same compound?
Answer: -4%

Question: What about the IC50 [41] of the same compound?
Answer: 1000 nM
